# According to patent publication US20260069694A1, “IDENTIFICATION OF HIGHLY IMMUNOSUPRESIVE TREG POPULATION IN TUMOR MICROENVIRONMENTS” (THE TRUSTEES OF COLUMBIA UNIVERSITY IN THE CITY OF NEW YORK, priority 2023, published 2026):
# Tests used:
# [1] = tested on: naïve CD4+ T cells; assay: iTreg induction from naive CD4+ T cells with TGF-βR1 inhibitor; assay type: cell-based, mouse
# Description: (§1) Naïve CD4^+ T cells and nTregs were isolated from the spleen of healthy C57B6129SF1/J mice by magnetic separation using a mouse CD4+ T cell isolation kit and PE-conjugated anti-mouse CD25 with anti-PE magnetic separation micro beads (Miltenyi Biotec™). The isolated T cells were stimulated with anti-CD3/CD28 beads (×25 dilution; Miltenyi Biotec™) in the presence or absence of recombinant mouse TGF-β1 (5 ng/ml; Bio-Techne™ Corporation) for 3 days. iRGD (100 μM) or iRGE (100 μM) peptide was added to the cultures in some experiments. To study the effect of TGF-β1 on the induction of αvβ5 integrin+ iTregs, naïve CD4+ T cells were cultured with anti-CD3/CD28 beads (x 25 dilution) and TGF-β1 (5 ng/ml) in the presence or absence of varying concentrations of a TGF-βR1 inhibitor (LY2157299; Selleck™ Chemicals LLC). To study the effect of TCR stimulation on the induction of αvβ5 integrin+ iTregs, naïve CD4+ T cells treated with varying concentrations of plate-coated anti-mouse CD3 Ab (eBioscience™) in the presence of soluble anti-mouse CD28 Ab (2 μg/ml) (eBioscience™) and TGF-β1 (5 ng/ml). The cells were subjected to flow cytometry as described elsewhere.
# Naive CD4+ T cells isolated from healthy mice were expanded in the presence of anti-CD3/CD28 Abs, exogenous TGF-β1, and increasing doses of a TGF-βR1 inhibitor (LY2157299). […] The bar diagram of FIG. 25B summarizes the results from 3 independent experiments. The statistical analysis used was one-way ANOVA; p<0.0001 (0 vs 1), p<0.0001 (1 vs 3), p=0.0154 (3 vs 10).
# The bar diagram of FIG. 26B summarizes the results from 3 independent experiments. The statistical analysis used was one-way ANOVA; p=0.3996 (αvβ5, 0 vs 1), p=0.5868 (αvβ5, 0 vs 3), p=0.2265 (NRP-1, 0 vs 1), p=0.5751 (NRP-1, 0 vs 3). The error bars indicate the mean±standard error; *p<0.05; ****p<0.0001; N.S., not significant.
# [2] = tested on: naïve CD4+ T cells / CD4+CD25+Foxp3+ iTregs; assay: iTreg induction from naive CD4+ T cells in the absence or presence of iRGD or iRGE; assay type: cell-based, mouse
# Description: as §1
# For the data presented in FIG. 31, FIG. 32A, and FIG. 32B, naïve CD4+ T cells were stimulated with anti-CD3/CD28 Abs and TGF-β1 in the absence or presence of iRGD or iRGE. Flow cytometry was performed to quantify the proportion of CD4+CD25+Foxp3+ iTregs (see FIG. 31) and αvβ5 integrin+ cells among the iTregs (See FIG. 32A). Apoptosis of αvβ5 integrin+ iTregs was quantitated by measuring cleaved caspase 3 using flow cytometry (see FIG. 32B; n=3).
# To investigate whether iRGD Reduces CD4+CD25+Foxp3+ iTregs in an RGD-Dependent Manner in Vitro, naïve CD4+ T cells were stimulated with anti-CD3/CD28 Abs and TGF-β1 in the absence or presence of the iRGD or iRGE peptide. The resulting cells were subjected to flow cytometry to analyze the expression of CD25 and Foxp3 in the CD4+ T cells (FIG. 33A) and the expression of the αvβ5 integrin and NRP-1 on CD4+CD25+Foxp3+ iTregs (FIG. 33B). The bar diagram in (FIG. 33C) summarizes the proportion of NRP-1+ cells among the iTregs. The statistical analysis used was the one-way ANOVA; p=0.8221. n=3 per group.
# The proportion of apoptotic αvβ5 integrin+ iTregs (FIG. 34) and CD4+Foxp3neg T cells (FIG. 35) was quantitated by measuring cleaved caspase 3 using flow cytometry. The statistical analysis used was Welch's t test; p=0.0705 (n=3). The dot plots and histograms of FIG. 33C and FIG. 35 show representative data from the 3 independent experiments. The error bars indicate the mean±standard error; N.S., not significant.
# [3] = peptide 100 μM, anti-CD3/CD28 Abs and TGF-β1
molecule,measurement,setting,value
Cc1cccc(-c2nn3c(c2-c2ccnc4ccc(C(N)=O)cc24)CCC3)n1 [LY2157299],proportion of the NRP-1-positive iTregs,[1]; among iTregs,did not affect
same,proportion of the αvβ5-positive iTregs,[1]; among iTregs,did not affect
same,development of iTregs (CD4+Foxp3+ T cells) from naïve CD4+ T cells,"[1]; anti-CD3/CD28 Abs, exogenous TGF-β1, increasing doses of inhibitor",suppressed the development of iTregs from naïve CD4+ T cells in a dose-dependent manner
"CRGEKGPDC [iRGE, an iRGD variant that lacks the RGD motif, reference compound]",apoptosis of CD4+Foxp3neg T cells (cleaved caspase 3),[2]; flow cytometry,Neither iRGD nor iRGE increased the apoptosis
same,proportion of CD4+CD25+Foxp3+ iTregs,[2]; [3],ineffective
same,αvβ5 integrin-positive population among the iTregs,[2]; [3],ineffective
